“Also recorded” adds a separate entry of the source.
Tests used:
Format in all cases: cell-based, human
Mesenchymal stem cells [1] = assay: Change in mesenchymal stem cell behavior following factor treatment (culture observation)
Description: Mesenchymal stem cells were derived from human volunteers under general anesthesia. Bone marrow was harvested from the iliac crest by aspiration. Approximately 5 mL of bone marrow was suspended in essential medium containing 20% fetal bovine serum (FBS), antibiotics, and glutamine (Sigma). […] The non-adherent cells, as well as any debris, is easily separated from the adherent mesenchymal stem cells.
Mesenchymal stem cells were plated at a density of 1×10^6/mL in a six well plate. Following adhesion of the cells to the plate, cells were treated with either medium containing 20% FBS, with medium supplemented with TGFβ-1, or with medium supplemented with sonic hedgehog.
Following adhesion of cells to the plate, cells were treated with either medium containing 20% FBS (negative control), medium containing 1 ng/mL TGFβ-1, or medium containing 100 ng/mL of the lipid modified N-terminal fragment of sonic hedgehog. In all cases, the medium was changes twice per week throughout the duration of the experiment.

Mesenchymal stem cells [2] = assay: Hematoxyline-eosine staining of paraffin sections of treated tissue; settings: 100 ng/mL lipid modified sonic hedgehog; 21 days
Description: (§1) Mesenchymal stem cell cultures were established, as described in detail above. Cells were cultured in the presence of 20% FBS, 1 ng/mL TGFβ-1, or 100 ng/mL lipid modified sonic hedgehog, and the medium was changed twice per week. After 21 days in culture, tissue was harvested, and fixed overnight in formaline solution. Fixed tissue was washed, dehydrated, embedded in paraffin, and 4 μm sections were cut using a microtome. Sections were mounted on adhesive slides, and processed for histology and immunohistochemistry.
Mounted paraffin sections were stained with hematoxyline-eosine, and viewed under a light microscope.

Mesenchymal stem cells [3] = assay: Alcian blue staining of paraffin sections of treated tissue; settings: 100 ng/mL lipid modified sonic hedgehog; 21 days; Alcian blue pH 2.5
Description: as §1
Mounted paraffin sections were stained with Alcian blue. Sections were treated with Alcian blue, pH 2.5 and 3% Acetic acid for five minutes. Following treatment, the sections were washed with ultrapure water.

Mesenchymal stem cells [4] = assay: Immunohistochemistry of paraffin sections of treated tissue; settings: 100 ng/mL lipid modified sonic hedgehog; 21 days
Description: as §1
Mounted paraffin sections were processed for immunohistochemistry with an automatic stainer (DAKO TechMate™) using indirect streptavidin-biotin methods with a Fuchsintype chromogen. The following primary antibodies were used: vimentin, collagen II, Indian hedgehog, PTHrp, BMPR-IA, BMPR-IB, and BMPR-II. Immunohistochemistry was by standard methods except for the PTHrp antibody which required incubation of the tissue with proteinase K.

[5] = 1 ng/mL TGFβ-1, after a week in culture

## TGFβ-1: TGFβ family polypeptide, added to the culture medium at 1 ng/mL
Mesenchymal stem cells [1]; [5]
  cell morphology: morphologically distinct
  cell size: larger
Mesenchymal stem cells [1]; treatment with TGFβ-1
  proliferative effects on mesenchymal stem cells: robust proliferative effects

## sonic hedgehog
Mesenchymal stem cells [2]
  tissue organization and matrix production (hematoxyline-eosine, light microscope): extensive organization of the tissue, the intricate folding of the layers, and the abundant matrix production; also recorded: highly organized, contains several folded layers, and produces abundant matrix
Mesenchymal stem cells [1]; 100 ng/mL lipid modified N-terminal fragment of sonic hedgehog, after the first two weeks in culture
  cell migration and clustering in the culture well: appeared to migrate and clustered in one half the area of the culture well
Mesenchymal stem cells [1]; 100 ng/mL lipid modified N-terminal fragment of sonic hedgehog, approximately three weeks in culture
  formation of a ball of tissue from the cell cluster: condensed and migrated to form a small ball; also recorded: formed a grayish-white ball
Mesenchymal stem cells [1]; 100 ng/mL lipid modified N-terminal fragment of sonic hedgehog, first two weeks in culture
  cell proliferation in culture: proliferated efficiently
Mesenchymal stem cells [3]
  Alcian blue staining (acid mucopolysaccharids): Positive
Mesenchymal stem cells [4]
  BMPR-IA immunostaining: not detected; also recorded: immunonegative
  BMPR-IB immunostaining: immunopositive
  BMPR-II immunostaining: immunopositive
  Indian hedgehog immunostaining: immunonegative
  PTHrp immunostaining: immunopositive
  collagen II immunostaining: strongly expressed; also recorded: strongly immunopositive
  vimentin immunostaining: strongly immunopositive
